Measured values from patent US20010000731A1, “Method for the prevention and treatment of chronic venous insufficiency” (priority 1999, published 2001).

Test system: swelling of the recto-anus induced by croton oil
Assay: Croton oil-induced hemorrhoid model in rats (recto-anus coefficient, RAC)
Type: in vivo, rat
Details: male SD rats; pure alkaloid oral 1 mg/kg; RAC determined 24 hours after induction; FIG. 3
Procedure: Male SD rats (6 weeks old, approximately 140 g) were purchased from Harlan Sprague Dawley and allowed to acclimate for 1 week. The rats were maintained in a pathogen-free facility in accordance with the National Research Council of Laboratory Animal care and use guidelines. Each experiment was preformed with age-matched rats 7- 8 weeks old. The croton oil-induced hemorrhoid model in rats was performed according to the method published by Nishiki (Nishiki et al. (1988) Folia Pharmacology Japan 92:215- 225; Nishiki et al. (1988) Folia Pharmacol. Japan 92:227-240). Briefly, a cotton swab with a diameter of 4 mm soaked with 0.16 mL of inducer (deionized water: pyridine : ethyl ether: 6% croton oil/ethyl ether (1:4:5:10) was applied to the rat's anus for 12 seconds. The final concentration of croton oil was 3%. The edema developed linearly until 7-8 hours after application and the severity of the edema was sustained for more than 24 hours. Twenty-four hours later, recto-anus tissue (approx. 10 mm long) was isolated after the rats were euthanized. The weights of rat body and recto-anus were measured. The recto-anus coefficient (RAC) was calculated using the formula: weight of recto-anus (mg)/body weight (g).
The average RAC of croton oil-treated rats was 2.10, which was 38.2% higher than that the rats treated with vehicle only (RAC=1.52). Vehicle alone did cause significant swelling of the recto-anus as compared with the rats without any treatment (RAC=0.98). Twenty-four hours after hemorrhoid induction with croton oil followed by treatment orally with prickly ash extract at either 6 mg/kg or 30 mg/kg and by treatment topically with prickly ash extract at 6 mg/mL in 1:1 aquaphor, the RAC of rats was determined.
This experiment was performed as described in Example 5. […] Twenty-four hours after hemorrhoid induction with croton oil followed by treatment orally with the pure alkaloids isolated from prickly ash extract at 1 mg/kg, the RAC of rats was determined. […]

Row | Compound | inhibition of the swelling of the recto-anus induced by croton oil (RAC)
1 | Chelerythrine | partially reduced
2 | COc1ccc2c(c1O)-c1c(O)c(OC)cc3c1[C@H](C2)[N+](C)(C)CC3 [Magnoflorine] | completely inhibited
3 | COc1cc2c(cc1O)C[C@H]1c3c(cc(OC)c(O)c3-2)CC[N+]1(C)C [Laurifoline] | partially reduced
